Converted amounts (≈) assume the structure as drawn. “And” between values parts separate entries of the source, which are not always exact repeats. Equal entries are not always repeated.
Key:
[1] = system: primary human fibroblasts; assay: nuclear fluorescence compared with cyclin A immunofluorescence (DNA quantification); assay type: cell-based; conditions: methanol-fixed cells
Excerpt: Such a double staining carried the risk of a possible competition for binding sites and/or unpredictable effects on fluorescence. Therefore, the inventors decided to compare the integrated total fluorescence of compound I-stained nuclei in fixed cells with a known cell cycle protein marker. The inventors fixed primary human fibroblasts with methanol, performed indirect immunofluorescence with anti-cyclin A antibodies, followed by Alexa 568-labelled secondary antibodies and counterstained nuclei with compound I. Cyclin A accumulates in cells beginning at the S phase and throughout the G2 cell cycle phase, and unlike cyclin B, is practically all nuclear (rev. in Pines, J. et al., 1992, Ciba Found Symp, 170, 187-196; discussion 196-204.). […] Moreover, the inventors observed a direct correlation of the compound I fluorescence with that of cyclin A in cyclin A-positive cells (FIG. 6B). […] This correlates well with 2N and 4N DNA content expected to be found in G1 and G2 cells, respectively.

plasmid DNA = assay: absorption of free molecules before and after addition of plasmid DNA; assay type: physicochemical; set-up: Absorption maxima free dye / Absorption maxima DNA bound dye: unit not given here
Method: Plasmid dsDNA was purified using a Qiagen Maxiprep kit and used in the supercoiled form for absorption and fluorescence studies. E. coli total RNA was bought from Ambion, dA/dT and dG/dC homopolymers were purchased from Amersham Biosciences. Calf thymus (CT) high-molecular weight DNA and Hoechst 33258 were obtained from Sigma-Aldrich. Ethidium bromide was purchased from Amresco.
Spectrometry and fluorimetry were performed using a SpectraMax384 (Molecular Devices) and a Luminescence Spectrometer LS50B (Perkin Elmer). Fluorescence emission of compound I in complex with DNA and RNA was measured in 50 mM Na phosphate buffer, pH 7.2 at room temperature. Before use, total E. coli RNA was heated to 100° C. for 1 min and immediately transferred on ice for 5 min before mixing with compound I solution. All measurements were carried out at room temperature (20-23° C.) in solutions protected from light and incubated for ˜10-15 min after dilution. The units of b/dye and bp/dye are defined as moles of RNA bases or DNA base pairs per mole of dye. Quantum yield was measured using quinine sulphate as standard as described in (Iupac Commission on Photochemistry, EPA Newsletter of November 1986, 21-29) using FLUOROMAX-3 Spex Spectrofluorometer (HORIBA) and UVIKON XL Spectrophotometer (SECOMAM).
Although compound I also stains mitotic chromosomes (FIG. 1D), theoretically it was possible that it binds specifically to DNA-associated proteins (for example histones) rather than to nucleic acids. To resolve this issue, the absorption and emission spectra of free compound I before and after addition of dsDNA were recorded. […] Molar extinction coefficient (EC) of free compound I at 391 nm was measured at 10,800 cm^−1 M^−1. In the presence of ds plasmid DNA the absorption peaks of compound I at 373 and 391 nm decreased, and a new peak appears with a maximum at 435 nm (FIG. 1E). An overlay of the absorption spectra in complex with dsDNA at different bp per dye ratios gives a single isosbestic point at 398 nm. Free compound I fluoresces around 438 nm (the exact position of the peak depends on the excitation wavelength). […] At the same time, a new peak evolves with a maximum around 484 nm (FIG. 1F). The exact maximum of fluorescence of compound I/DNA complexes varies insignificantly as a function of the dye/bp ratio and/or base pairs composition of the nucleic acids. […] The quantum yield for compound I (excited at 435 nm) at 5 μM in 50 mM Na-phosphate, pH 7.2, was determined to be 2.7% for free dye and 13.8% in admixture with 50 μM CT DNA.
To get a further insight into how the structural properties of compound I contribute to its binding to DNA, the inventors analysed fourteen structural analogues present in the compound library. Although several of these compounds are fluorescent in vivo, this property went undetected in the initial screen most likely due to the latency period before the appearance of the signal (see below). To evaluate the activity of compound I-like molecules three tests were used: (1) in vivo, the inventors incubated human fibroblasts in the presence of the molecules and scored nuclear fluorescence in the microscope; (2 and 3) in vitro, the inventors looked at the absorption and fluorescence of free molecules before and after addition of plasmid DNA. […] With the exception of compound I and analogues 8 and 12, accurate in vitro measurement of the fluorescence intensities was impossible because the emission peaks for the free molecules were too close to that for the DNA-bound dye. This affected the height of the dye/DNA peaks.

solubility in DMSO = assay type: physicochemical; conditions: organic solvent or mixture, free base, read-out: solubility (saturation)
Method: Solubility of compound I: In DMSO, compound I (free base) is soluble until saturation at ˜7 mM. As much as 1 volume of 7 mM, compound I in DMSO mixed with 7 volumes of H2O forms a turbid solution (0.875 mM compound I in ˜12% DMSO). Upon sonication for 1 min, this solution becomes limpid and can be further dissolved in aqueous solutions.

COc1ccc2c(c1)c(C)nc1c3ccc(OC)cc3c(NCCCN(C)C)nc21 [Compound I, N′-(2,8-dimethoxy-12-methyl-dibenzo[c,h][1,5]naphthyridin-6-yl)-N,N-dimethyl-propane-1,3-diamine]
dye fluorescence of strongly cyclin A-positive nuclei relative to cyclin A-negative nuclei [1]: approximately twice as much | Absorption maxima DNA bound dye (plasmid DNA; after addition of plasmid DNA): 435 | isosbestic point of absorption spectra (plasmid DNA; complex with dsDNA at different bp per dye ratios): 398 nm | absorption maxima of free dye (plasmid DNA; free compound): 224 nm and 245 nm and 283 nm and 326 nm and 373 nm and 391 nm | Molar extinction coefficient (EC) (plasmid DNA; free dye at 391 nm): 10,800 cm^−1 M^−1 | Absorption maxima free dye (plasmid DNA; free molecule, before addition of plasmid DNA): 394 | absorption maximum of new peak (plasmid DNA; in the presence of ds plasmid DNA): 435 nm | solubility (solubility in DMSO): ~7 mM (≈ 2830 µg/mL)

— patent US7728128B2, “Dibenzo[c,h][1,5]naphthyridines and their use as DNA probes” (Institut National de la Sante et de la Recherche Medicate …, priority 2006, dated 2010)
